Read-outs that look alike come from different tables or passages of the source.
Columns and labels:
[1] = tested on: OVCAR-3 cells; test: In vitro antiproliferative effects in OVCAR-3 cells (crystal violet assay), with or without bovine beta-glucuronidase (GUS); format: cell-based, human; details: for IC50: 3 days incubation; for toxicity compared with doxorubicin: in the presence of GUS
Procedure: The toxicity of the prodrugs was tested with OVCAR-3 cells. The cells were incubated for 3 days with the different prodrugs DOX-alGA3, DOX-mPEG4-GA3, DOX-mPEG7-GA3, and for comparison also with Doxorubicin, in fetal bovine serum (FBS), in the presence or absence of bovine beta-glucuronidase (GUS).
The concentrations used for the prodrugs ranged from 0.001 μM to 50 μM.
In vitro antiproliferative effects in OVCAR-3 cells after 3 days of incubation with the different (pro)-drugs DOX, DOX-alGA3, DOX-mPEG4-GA3 and DOX-mPEG7-GA3 in the presence or absence of bovine beta-glucuronidase(GUS).
The concentrations used for the prodrugs ranged from 0.001 μM to 50 μM, the GUS enzyme was added to give a final concentration of 10 units/μl. Adjacent to this, cells treated with the prodrugs were incubated without GUS. Incubation was conducted at 37° C. in a humidified, 5% CO2 incubator of three days. Cell growth is measured by crystal violet assay, untreated cells are set at 100%. The IC50 values found in these experiments are depicted in the table beneath.
The human ovarian cancer (OVCAR3) cell line was maintained in DMEM supplemented with 10% heat inactivated FBS and 1% P/S. Inhibition of proliferation of the OVCAR cell line by the doxorubicin prodrugs Dox-allyl, Dox-mGA3, Dox-mPEG4 and Dox-mPEG7 was determined using a crystal violet assay. The assay was preformed in a 96-wells plate. Cells that were harvested by trypsinisation were seeded with 5.000 cells in 100 μl medium per well. The 96-wells plate was incubated overnight at 37° C. in a humidified, 5% CO2 incubator. The different prodrugs were added in concentrations between 0.001 μM to 50 μM. Subsequently, the GUS enzyme was added to give a final concentration of 10 units/μl. This mixture was incubated at 37° C. in a humidified, 5% CO2 incubator for tree days. Subsequently, the cells were stained and fixed with 50 μl 1% crystal violet in 70% ethanol. The cells were washed with water and resolubilized in 100 μl 1% SDS. After this the absorbance was read at 550 nm. The blank extinction values were determined on wells in which no cells were seeded were subtracted from the signals. Inhibition concentrations 50% (IC50) were derived by plotting the inhibition of cell proliferation at different concentrations of the prodrug and non-linear curve fitting.

[2] = tested on: tumor bearing mice; details: based on 10% weight loss, i.v.; cited from earlier work
[3] = tumor bearing mice, half of the MTD; cited from earlier work
[4] = Hydrolysis of prodrug esters in phosphate buffer pH 7.33, followed by reverse phase TLC; format: physicochemical; details: phosphate buffer pH=7.33, room temperature
Description: hydrolyze faster than alkyl esters like DOX-mGA3 due to the better leaving ability of the ester group of 1. This is caused by the electron-withdrawing properties of the triazol functionality. Indeed in a phosphate buffer with pH=7.33 it took 24 hrs at room temperature before DOX-mGA3 was completely hydrolyzed. The DOX derivatives of 1 with n=7 or 12 and x=1 (DOX-mPEG7GA3 and DOX-mPEG12GA3) were, nevertheless, already hydrolyzed within 4 hrs under these circumstances.
The hydrolysis of the DOX esters were qualitatively followed with reverse phase TLC (RP18). With eluens acetonitril/water: 42/58 in a phosphate buffer (KH2PO4/Na2HPO4) of pH=7.33.
DOX-mGA3 0.29 mg was dissolved in 1 ml of buffer together with some drops of DMSO to keep the DOX-mGA3 dissolved. It took 24 hrs before the starting compound had disappeared.
In the same way the hydrolysis of DOX-triazol esters 1 (n=, 7 and 12, x=1) were followed for 0.35 mg/ml and 0.45 mg/ml buffer. Both esters were completely hydrolyzed within 4 hrs.

[5] = Solubility in water; format: physicochemical
Procedure: For DOX-triazol ester 1 (DOX-mPEG4GA3) about 0.6 mg prodrug dissolve in 1 ml of water whereas for DOX-mPEG7GA3 already 2.5 mg dissolve in 1 ml of water and for DOX-mPEG12GA3 this has reached more than 15 mg in 1 ml of water.

[6] = has to be administered in a vehicle containing Cremophore EL; cited from earlier work
[7] = tested on: carboxyl esterases; details: mouse plasma; cited from earlier work
[8] = tested on: carboxyl esterases; details: human plasma; cited from earlier work
[9] = cited from earlier work
[10] = no GUS, read-out: IC50 (M) No GUS
[11] = bovine beta-glucuronidase 10 units/μL, read-out: IC50 (M) with GUS (10 units/μL)

Structure (SMILES)	IC50 [1, 10] [M]	IC50 [1, 11] [M]	toxicity compared with doxorubicin [1]	solubility in water [5]	further results
COc1cccc2c1C(=O)c1c(O)c3c(c(O)c1C2=O)C[C@@](O)(C(=O)CO)C[C@@H]3O[C@H]1C[C@H](N)[C@H](O)[C@H](C)O1 [DOX, doxorubicin, reference compound]	6.19e-08	–	–	–	maximum tolerated dose (MTD) [2]: 8 mg/kg
COc1cccc2c1C(=O)c1c(O)c3c(c(O)c1C2=O)CC(O)(C(=O)CO)CC3OC1CC(NC(=O)OCc2ccc(NC(=O)OC3OC(C(=O)O)C(O)C(O)C3O)cc2)C(O)C(C)O1 (centres unmarked) [DOX-GA3]	–	–	–	–	maximum tolerated dose (MTD) [2]: approximately 500 mg/kg; concentrations of doxorubicin in plasma versus administration of doxorubicin [3]: significantly lower concentrations of doxorubine in plasma; concentrations of doxorubicin in tumor tissue versus administration of doxorubicin [3]: higher
C=CCOC(=O)C1OC(OC(=O)Nc2ccc(COC(=O)NC3CC(OC4CC(O)(C(=O)CO)Cc5c(O)c6c(c(O)c54)C(=O)c4c(OC)cccc4C6=O)OC(C)C3O)cc2)C(O)C(O)C1O (centres unmarked) [DOX-alGA3]	9.81e-06	5.84e-08	comparable toxicity as doxorubicin	–	–
COC(=O)C1OC(OC(=O)Nc2ccc(COC(=O)NC3CC(OC4CC(O)(C(=O)CO)Cc5c(O)c6c(c(O)c54)C(=O)c4c(OC)cccc4C6=O)OC(C)C3O)cc2)C(O)C(O)C1O (centres unmarked) [DOX-mGA3]	–	–	–	–	time until completely hydrolyzed [4]: 24 h; solubility in water (in words) [5]: completely insoluble in water; solubility in water (in words, background) [6]: very bad solubility in water; half time of conversion to DOX-GA3 [7]: approximately 05 min; half time of conversion to DOX-GA3 [8]: ~2.5 h; pharmacokinetics in mice (in words) [9]: improved pharmacokinetics
COCCOCCOCCOCCn1cc(COC(=O)C2OC(OC(=O)Nc3ccc(COC(=O)NC4CC(OC5CC(O)(C(=O)CO)Cc6c(O)c7c(c(O)c65)C(=O)c5c(OC)cccc5C7=O)OC(C)C4O)cc3)C(O)C(O)C2O)nn1 (centres unmarked) [DOX-mPEG4-GA3]	2.21e-05	6.21e-08	comparable toxicity as doxorubicin	about 0.6 mg in 1 ml of water	–
COCCOCCOCCOCCOCCOCCOCCn1cc(COC(=O)C2OC(OC(=O)Nc3ccc(COC(=O)NC4CC(OC5CC(O)(C(=O)CO)Cc6c(O)c7c(c(O)c65)C(=O)c5c(OC)cccc5C7=O)OC(C)C4O)cc3)C(O)C(O)C2O)nn1 (centres unmarked) [DOX-mPEG7-GA3]	8.33e-06	7.74e-08	slightly less toxic	2.5 mg in 1 ml of water	–
COCCOCCOCCOCCOCCOCCOCCOCCOCCOCCOCCOCCn1cc(COC(=O)C2OC(OC(=O)Nc3ccc(COC(=O)NC4CC(OC5CC(O)(C(=O)CO)Cc6c(O)c7c(c(O)c65)C(=O)c5c(OC)cccc5C7=O)OC(C)C4O)cc3)C(O)C(O)C2O)nn1 (centres unmarked) [DOX-mPEG12GA3]	–	–	–	more than 15 mg in 1 ml of water	–

Source: patent US20090227617A1, “Esters Of Glucuronide Prodrugs Of Anthracyclines And Method Of Preparation And Use In Tumor-Selective Chemotherapy” (Pharmachemie B.V., priority 2008, published 2009)
